{
  "source": "patent US20240287172A1",
  "about": "“PROTEIN BINDERS TO IRHOM2 EPITOPES” (SCIRHOM GMBH, priority 2019, published 2024)",
  "test_system": "PMA-induced release of endogenous HB-EGF from PBMCs from patients suffering from rheumatoid arthritis",
  "experiment": "ELISA-based HB-EGF release assay, PMA-induced, PBMCs from RA-patients",
  "type": "cell-based",
  "conditions": "PBMC; PMA 25 ng/ml, 6 hours; chimeric antibodies (CHO) and human IgG at 1 μg/ml; Batimastat at 10 μM",
  "experimental": "In brief, on day 1, Nunc black MaxiSorp® 96-well plates (Thermo Fisher Scientific, USA) were coated overnight with 100 μl per well of rat anti-human HB-EGF capture antibody (provided as part of the DuoSet ELISA kit) at 2 μg/ml TBS at 4° C. On day 2, the capture antibody solution was removed and MaxiSorp® plates were blocked with 300 μl per well of TBS, 1% BSA at room temperature for 3 hours. Meanwhile, 80,000 PBMC from patients suffering from rheumatoid arthritis (STEMCELL Technologies, Canada) cells in 80 μl of normal growth medium were seeded in each well of Greiner CELLSTAR V-bottom 96-well plates (Thermo Fisher Scientific, USA) and pre-incubated with 20 μl per well of standard growth medium supplemented with Batimastat (BB94, Abcam, UK) at 50 μM as positive control (for a final concentration of 10 μM in the resulting 100 μl sample volume), human IgG antibody (Thermo Fisher Scientific, USA) at 5 μg/ml as isotype control (for a final concentration of 1 μg/ml in the resulting 100 μl sample volume) or antibodies of the invention at 5 μg/ml (for a final concentration of 1 μg/ml in the resulting 100 μl sample volume) at 37° C., 5% CO2 for 30 minutes. […] Using an infinite M1000 (Tecan Group, Switzerland) microplate reader, the fluorescence of each well was collected at an excitation wavelength of 435 nm and an emission wavelength of 555 nm.",
  "data": [
    {"smiles": "CNC(=O)[C@H](Cc1ccccc1)NC(=O)[C@H](CC(C)C)[C@H](CSc1cccs1)C(=O)NO", "note": "[Batimastat]", "values": [
      {"measurement": "inhibition at 10 µM", "result": 102, "unit": "%"}
    ]}
  ]
}
